Assay results published in patent US10815197B2, “N-sulfonyl benzamides as voltage-gated sodium channel inhibitors” (SHANGHAI HAIYAN PHARMACEUTICAL TECHNOLOGY CO., LTD., priority 2016, dated 2020).

How the values were obtained:
[1] = biological target: T1, hCav3.2 (Homo sapiens, UniProt O95180); assay: Manual patch clamp experiment of hCav3.2 channel (HEK-hCav3.2); assay type: cell-based; conditions: read-out: Cav3.2(IC50/nM)
T1 construct: host or cells: HEK
Protocol: Manual Patch Clamp Experiment of hCav3.2 Channel: The stable cell line HEK-hCav3.2 used for manual patch clamp experiments was from WuXi Apptec (Shanghai) Company. […] Composition of extracellular fluid (millimoles) in the experiment: HEPES 10, CsCl 6, CaCl2) 2, TEA-Cl 140. The pH was adjusted to 7.4 with CsOH, while the osmotic pressure was adjusted to 310-320 mOsm with sucrose, filtered and stored at 4° C. Composition of the intracellular fluid (millimoles): HEPES 10, CsCl 55, CsSO4 75, MgCl2 10, EGTA 0.1. The pH was adjusted to 7.2 with CsOH, while the osmotic pressure was adjusted to 280-290 mOsm with sucrose, filtered and stored at −20° C. […] Manual Patch Clamp Experiment: The cell suspension was added to a 35 mm petri dish and placed on an inverted microscope stage. The cells were perfused with an extracellular fluid and the flow rate was 1-2 mL/min after cell adherence. […] The stimulation program was repeated every 15 s and recorded continuously. The inhibitory effect of the compound was calculated by the change of the current before and after dosing, and the IC50 value was fitted by the Hill equation.

[2] = biological target: T2, hERG potassium ion channel (Homo sapiens, UniProt Q12809); assay: Effect on hERG potassium ion channel (CHO hERG cells, manual patch clamp); assay type: cell-based; conditions: final 10 μM test concentration, read-out: hERG inhibitory concentration IC50
T2 construct: host or cells: CHO
Protocol: Assay 2: Effect on hERG Potassium Ion Channel 2.1 Cell Culture 2.1.1 Cells used in this experiment were CHO cell lines (supplied by Sophion Bioscience, Denmark) which were hERG cDNA transfectant and stably express hERG channels, and cell progeny was P15. Cells were cultured in medium containing the following ingredients Invitrogen): Ham's F12 medium, 10% (v/v) inactivated fetal bovine serum, […] Geneticin. 2.1.2 CHO hERG cells were grown in Petri dishes containing the above medium and cultured in an incubator containing 5% CO2 at 37° C. CHO hERG cells were transferred onto round glass plates in Petri dishes, and grown on the same culture medium under culture conditions as above for 24 h to 48 h prior to the electrophysiological experiments, and the density of CHO hERG cells on each round glass plate needs to meet the requirements that the vast majority of cells are independent and individual. 2.2 Experimental Solution The following solutions (supplied by Sophion) were used for electrophysiological recording as shown in Table 3. The reagents used in this test were provided by Sigma. [table] 2.3 Electrophysiological Recording System In this experiment, whole-cell current recording was performed using a manual patch clamp system (HEKA EPC-10 signal amplification and digital conversion system, purchased from HEKA Electronic, Germany). The round glass slide, surface of which CHO hERG cells were grown on was placed in an electrophysiological recording slot under an inverted microscope. Extracellular fluid was used for steady perfision in recording slot (approximately 1 ml per minute). A conventional whole-cell patch clamp current recording technique was used in the experiment. Unless otherwise specified, experiments were performed at normal room temperature (25° C.). Cell clamping was at −80 mV. Cell clamping voltage depolarized to +20 mV to activate hERG potassium channel, clamping to −50 mV after 5 sec to eliminate inactivation and generate tail currents. The tail current peak was used as a value for hERG current. The hERG potassium current recorded in the above steps could be superfused for test drug after the steady perfusion state of the extracellular fluid in the recording slot is stabilized until the inhibition of the hERG current by the drug reached a steady state. The coincidence of the last three consecutive current recording lines was generally used as a criterion to determine whether the state is stable. After reaching a steady state, perfused with extracellular fluid until hERG current returned to the value before the drug adding. One or more drugs could be tested on a single cell, or multiple concentrations of the same drug, but needed to be rinsed with extracellular fluid between different drugs. […] 2.4 Compound Treatment and Dilution The compound was firstly dissolved in DMSO to a concentration of 10 mM and then the compound was diluted 1000-fold to the final […] test concentration using an extracellular solution. The final concentration of DMSO in the compound test solution was equal to 0.1%. […] All stock solutions and test solutions were subjected to regular 5-10 minute sonication and shaken to ensure complete dissolution of the compound. 2.5 Data Analysis The test data were analyzed by the data analysis software provided by HEKA Patchmaster (V2x73.2), Microsoft Excel and Graphpad Prism 5.0.

T2 sequence (Q12809 whole entry): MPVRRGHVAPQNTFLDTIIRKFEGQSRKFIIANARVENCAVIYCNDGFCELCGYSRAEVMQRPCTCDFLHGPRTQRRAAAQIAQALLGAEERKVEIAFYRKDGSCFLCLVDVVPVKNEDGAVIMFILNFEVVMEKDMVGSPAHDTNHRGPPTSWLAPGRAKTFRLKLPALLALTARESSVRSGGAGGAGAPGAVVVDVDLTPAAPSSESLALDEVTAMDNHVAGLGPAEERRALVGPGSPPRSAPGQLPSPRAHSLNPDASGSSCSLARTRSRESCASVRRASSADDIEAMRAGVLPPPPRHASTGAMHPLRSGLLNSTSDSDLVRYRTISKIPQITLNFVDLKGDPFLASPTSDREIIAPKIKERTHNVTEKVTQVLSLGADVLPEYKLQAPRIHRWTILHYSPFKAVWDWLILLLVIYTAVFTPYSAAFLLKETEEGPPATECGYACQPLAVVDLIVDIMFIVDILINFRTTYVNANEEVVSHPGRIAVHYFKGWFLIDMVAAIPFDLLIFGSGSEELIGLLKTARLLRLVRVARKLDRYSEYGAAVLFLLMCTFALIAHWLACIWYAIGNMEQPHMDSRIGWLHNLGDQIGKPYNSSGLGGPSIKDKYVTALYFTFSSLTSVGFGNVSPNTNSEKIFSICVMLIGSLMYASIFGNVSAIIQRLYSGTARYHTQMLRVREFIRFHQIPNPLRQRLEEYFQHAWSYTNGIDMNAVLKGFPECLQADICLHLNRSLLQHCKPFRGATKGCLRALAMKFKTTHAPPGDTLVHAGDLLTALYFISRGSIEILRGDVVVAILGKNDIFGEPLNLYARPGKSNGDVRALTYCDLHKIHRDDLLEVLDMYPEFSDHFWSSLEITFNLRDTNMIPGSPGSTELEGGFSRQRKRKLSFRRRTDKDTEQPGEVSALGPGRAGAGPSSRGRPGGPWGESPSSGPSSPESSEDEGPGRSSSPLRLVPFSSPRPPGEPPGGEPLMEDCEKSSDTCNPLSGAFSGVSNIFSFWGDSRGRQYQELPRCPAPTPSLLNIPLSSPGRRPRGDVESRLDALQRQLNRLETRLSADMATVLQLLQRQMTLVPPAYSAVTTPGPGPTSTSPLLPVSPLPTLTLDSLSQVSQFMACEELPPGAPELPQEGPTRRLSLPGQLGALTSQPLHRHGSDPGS
T1 sequence (O95180 whole entry): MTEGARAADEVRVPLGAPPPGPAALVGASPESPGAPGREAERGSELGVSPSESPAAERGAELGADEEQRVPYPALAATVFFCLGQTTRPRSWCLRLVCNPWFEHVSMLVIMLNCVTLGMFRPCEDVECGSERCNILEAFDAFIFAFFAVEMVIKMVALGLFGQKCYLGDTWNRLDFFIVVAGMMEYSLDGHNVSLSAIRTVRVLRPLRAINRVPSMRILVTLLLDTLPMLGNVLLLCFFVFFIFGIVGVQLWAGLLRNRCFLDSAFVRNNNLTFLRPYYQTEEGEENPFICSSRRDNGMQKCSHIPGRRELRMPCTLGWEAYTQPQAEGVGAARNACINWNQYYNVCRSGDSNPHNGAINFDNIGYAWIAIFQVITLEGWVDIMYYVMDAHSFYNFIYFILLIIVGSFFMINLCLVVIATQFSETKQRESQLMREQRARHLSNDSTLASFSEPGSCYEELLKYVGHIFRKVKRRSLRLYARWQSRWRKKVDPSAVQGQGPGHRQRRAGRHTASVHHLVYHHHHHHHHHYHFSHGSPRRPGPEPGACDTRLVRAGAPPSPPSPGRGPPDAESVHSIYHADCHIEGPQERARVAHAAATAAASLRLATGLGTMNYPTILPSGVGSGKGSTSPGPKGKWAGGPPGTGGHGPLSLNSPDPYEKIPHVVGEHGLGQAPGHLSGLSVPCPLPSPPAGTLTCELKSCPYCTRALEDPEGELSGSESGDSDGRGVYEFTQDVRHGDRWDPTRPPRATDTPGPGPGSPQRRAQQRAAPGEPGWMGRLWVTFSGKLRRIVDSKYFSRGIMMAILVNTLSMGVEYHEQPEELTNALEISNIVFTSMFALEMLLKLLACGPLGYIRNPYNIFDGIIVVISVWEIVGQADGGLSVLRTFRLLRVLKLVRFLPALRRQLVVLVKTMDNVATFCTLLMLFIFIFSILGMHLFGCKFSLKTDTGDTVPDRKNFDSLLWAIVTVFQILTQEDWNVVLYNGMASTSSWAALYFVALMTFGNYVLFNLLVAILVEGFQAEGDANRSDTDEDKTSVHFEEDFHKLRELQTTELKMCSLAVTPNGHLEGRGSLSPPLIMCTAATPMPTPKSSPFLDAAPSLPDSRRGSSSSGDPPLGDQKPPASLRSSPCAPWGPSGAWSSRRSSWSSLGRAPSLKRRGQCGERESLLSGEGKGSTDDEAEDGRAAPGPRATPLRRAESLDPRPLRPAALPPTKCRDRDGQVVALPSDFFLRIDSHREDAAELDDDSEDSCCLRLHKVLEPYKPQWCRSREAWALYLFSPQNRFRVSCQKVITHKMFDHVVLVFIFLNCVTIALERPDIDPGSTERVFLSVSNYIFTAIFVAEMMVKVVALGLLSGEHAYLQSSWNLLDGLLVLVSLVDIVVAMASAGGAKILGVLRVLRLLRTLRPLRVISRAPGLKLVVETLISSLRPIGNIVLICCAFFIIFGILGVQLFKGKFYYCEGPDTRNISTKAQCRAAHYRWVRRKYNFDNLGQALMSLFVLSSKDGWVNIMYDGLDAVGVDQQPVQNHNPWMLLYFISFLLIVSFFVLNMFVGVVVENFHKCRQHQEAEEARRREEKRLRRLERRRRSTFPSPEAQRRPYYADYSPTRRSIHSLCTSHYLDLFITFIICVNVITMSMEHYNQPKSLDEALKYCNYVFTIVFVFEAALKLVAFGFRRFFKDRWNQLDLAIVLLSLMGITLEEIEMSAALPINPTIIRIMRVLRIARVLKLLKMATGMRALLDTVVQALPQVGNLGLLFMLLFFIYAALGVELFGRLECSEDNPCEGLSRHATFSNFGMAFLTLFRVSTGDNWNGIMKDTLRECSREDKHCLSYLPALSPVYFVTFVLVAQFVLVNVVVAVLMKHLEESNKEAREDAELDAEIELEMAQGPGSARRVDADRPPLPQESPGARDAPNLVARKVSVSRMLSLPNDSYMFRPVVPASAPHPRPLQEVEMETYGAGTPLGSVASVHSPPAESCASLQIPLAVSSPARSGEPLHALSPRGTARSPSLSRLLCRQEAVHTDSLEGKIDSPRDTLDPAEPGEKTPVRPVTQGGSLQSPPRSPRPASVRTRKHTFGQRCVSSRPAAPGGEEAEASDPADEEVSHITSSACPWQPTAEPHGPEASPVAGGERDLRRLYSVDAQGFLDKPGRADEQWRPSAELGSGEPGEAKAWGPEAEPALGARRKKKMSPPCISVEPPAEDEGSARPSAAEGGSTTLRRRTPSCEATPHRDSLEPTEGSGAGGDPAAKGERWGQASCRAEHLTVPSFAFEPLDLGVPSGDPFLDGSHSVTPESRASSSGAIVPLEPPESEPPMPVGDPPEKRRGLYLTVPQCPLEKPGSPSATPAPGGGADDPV

Compound | IC50 [1] [nM] | IC50 [2] [µM]
Cc1cc(N2CCN(Cc3cc(F)c(C(=O)NS(=O)(=O)C4CC4)cc3Cl)CC2)ccc1Cl [Compound Z-164] | > 30000 | 
C[C@@H]1CN(c2ccc(Cl)c(Cl)c2)CCN1Cc1cc(F)c(C(=O)NS(=O)(=O)C2CC2)cc1Cl [Compound Z-172, (R)-5-Chloro-N-(cyclopropylsulfonyl)-4-((4-(3,4-dichlorophenyl)-2-methylpiperazin-1-yl)methyl)-2-fluorobenzamide] |  | > 10
O=C(NS(=O)(=O)C1CC1)c1cc(Cl)c(CN2CCN(c3ccc(C4CC4)c(Cl)c3)CC2)cc1F [Compound Z-173] |  | > 10
Cc1ccc(N2CCN(Cc3cc(F)c(C(=O)NS(=O)(=O)C4CC4)cc3Cl)CC2)cc1Cl [Compound Z-177] |  | > 10
CCc1cc(N2CCN(Cc3cc(F)c(C(=O)NS(=O)(=O)C4CC4)cc3Cl)CC2)ccc1Cl [Compound Z-178] |  | > 10
CCc1cc(C(=O)NS(=O)(=O)C2CC2)c(F)cc1CN1CCN(c2ccc(OC(F)(F)F)cc2)CC1 [Compound Z-189, N-(cyclopropylsulfonyl)-5-ethyl-2-fluoro-4-((4-(4-(trifluoromethoxy)phenyl)piperazin-1-yl)methyl)benzamide] |  | > 10
